This experiment deals with LasB (elastase) (Pseudomonas aeruginosa, UniProt P14756). The experiment in a line: BODIPY-FL casein fluorescence protease assay with purified LasB. In kind it is biochemical.

pKi: −log10 of the molar value.

Sequence of LasB (elastase) (P14756 198-498): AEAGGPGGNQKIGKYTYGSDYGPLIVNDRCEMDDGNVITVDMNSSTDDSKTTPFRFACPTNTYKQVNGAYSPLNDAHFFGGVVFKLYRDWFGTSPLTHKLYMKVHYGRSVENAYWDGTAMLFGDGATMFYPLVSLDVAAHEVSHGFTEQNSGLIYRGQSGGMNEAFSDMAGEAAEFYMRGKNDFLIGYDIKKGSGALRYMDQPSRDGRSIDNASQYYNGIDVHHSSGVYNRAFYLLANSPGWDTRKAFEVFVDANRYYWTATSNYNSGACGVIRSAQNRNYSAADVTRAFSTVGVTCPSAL

Compound `CCCCCCC[C@@H]1C[C@H]1CCC(=O)O` [compound 4, lyngbyoic acid] showed a pKi of 5.27.

Usually pKi stands for −log10 of the Ki, conventionally taken in molar units. Lower therefore signals a high Ki.
